According to PubChem BioAssay (NCI):
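The compound was tested at five concentrations on cells cultured in 96-well plates, with a 48-hour exposure period. GI50 marks 50% less growth. TGI denotes the concentration required for complete inhibition of growth.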

How the values were obtained:
Assay in all cases: growth of human tumour cells (NCI), 48 h; in the data active = GI50 below about 0.43 µM; inactive = the rest
LOX IMVI melanoma = test system: LOX IMVI melanoma
UACC-62 melanoma = test system: UACC-62 melanoma
HS 578T breast = test system: HS 578T breast
SF-268 CNS = test system: SF-268 CNS
NCI-H522 lung = test system: NCI-H522 lung
PC-3 prostate = test system: PC-3 prostate
SW-620 colon = test system: SW-620 colon
HCC-2998 colon = test system: HCC-2998 colon
SN12C renal = test system: SN12C renal
HL-60(TB) leukemia = test system: HL-60(TB) leukemia
HCT-15 colon = test system: HCT-15 colon
SNB-19 CNS = test system: SNB-19 CNS
TK-10 renal = test system: TK-10 renal
CAKI-1 renal = test system: CAKI-1 renal
OVCAR-4 ovarian = test system: OVCAR-4 ovarian
BT-549 breast = test system: BT-549 breast
NCI-H23 lung = test system: NCI-H23 lung
HOP-62 NSCLC = test system: HOP-62 NSCLC
UACC-257 melanoma = test system: UACC-257 melanoma
SK-OV-3 ovarian = test system: SK-OV-3 ovarian
CCRF-CEM leukemia = test system: CCRF-CEM leukemia
U251 CNS = test system: U251 CNS
SNB-75 CNS = test system: SNB-75 CNS
KM12 colon = test system: KM12 colon
A549 NSCLC = test system: A549 NSCLC
HOP-92 NSCLC = test system: HOP-92 NSCLC
NCI-H460 lung = test system: NCI-H460 lung
MDA-N = test system: MDA-N
EKVX NSCLC = test system: EKVX NSCLC
MDA-MB-231 breast = test system: MDA-MB-231 breast
SR leukemia = test system: SR leukemia
OVCAR-8 ovarian = test system: OVCAR-8 ovarian
OVCAR-3 ovarian = test system: OVCAR-3 ovarian
NCI-H226 lung = test system: NCI-H226 lung
MOLT-4 leukemia = test system: MOLT-4 leukemia
ACHN renal = test system: ACHN renal
SF-295 CNS = test system: SF-295 CNS
K-562 leukemia = test system: K-562 leukemia
786-0 renal = test system: 786-0 renal
NCI/ADR-RES ovarian = test system: NCI/ADR-RES ovarian
SK-MEL-5 melanoma = test system: SK-MEL-5 melanoma
T-47D breast = test system: T-47D breast
MDA-MB-435 = test system: MDA-MB-435
RXF 393 renal = test system: RXF 393 renal
COLO 205 colon = test system: COLO 205 colon
HCT-116 colon = test system: HCT-116 colon
SF-539 CNS = test system: SF-539 CNS
DU-145 prostate = test system: DU-145 prostate
M14 melanoma = test system: M14 melanoma
SK-MEL-2 melanoma = test system: SK-MEL-2 melanoma
MALME-3M melanoma = test system: MALME-3M melanoma
MCF7 breast = test system: MCF7 breast
SK-MEL-28 melanoma = test system: SK-MEL-28 melanoma
HT29 colon = test system: HT29 colon
UO-31 renal = test system: UO-31 renal
OVCAR-5 ovarian = test system: OVCAR-5 ovarian
A498 renal = test system: A498 renal
RPMI-8226 leukemia = test system: RPMI-8226 leukemia
IGROV1 ovarian = test system: IGROV1 ovarian

O=C(c1ccco1)N(C(=S)OC12CC3CC(CC(C3)C1)C2)c1ccccc1
59.5 µM: TGI (CCRF-CEM leukemia) | TGI (U251 CNS)
65.7 µM: TGI (MALME-3M melanoma)
83.6 µM: TGI (ACHN renal)
84.6 µM: TGI (A498 renal)
85.3 µM: TGI (MCF7 breast)
87.3 µM: TGI (NCI-H23 lung)
77.4 µM: TGI (OVCAR-3 ovarian)
44.8 µM: TGI (RXF 393 renal)
> 100 µM: TGI (SF-268 CNS) | TGI (SW-620 colon) | TGI (HCT-15 colon) | TGI (SNB-19 CNS) | TGI (TK-10 renal) | TGI (CAKI-1 renal) | TGI (OVCAR-4 ovarian) | TGI (BT-549 breast) | TGI (HOP-62 NSCLC) | TGI (UACC-257 melanoma) | TGI (SK-OV-3 ovarian) | TGI (SNB-75 CNS) | TGI (KM12 colon) | TGI (A549 NSCLC) | TGI (HOP-92 NSCLC) | TGI (NCI-H460 lung) | TGI (MDA-MB-231 breast) | TGI (OVCAR-8 ovarian) | TGI (NCI-H226 lung) | TGI (MOLT-4 leukemia) | TGI (SF-295 CNS) | TGI (K-562 leukemia) | TGI (NCI/ADR-RES ovarian) | TGI (T-47D breast) | TGI (DU-145 prostate) | TGI (SK-MEL-28 melanoma) | TGI (HT29 colon) | TGI (OVCAR-5 ovarian)
90.3 µM: TGI (MDA-MB-435)
86.2 µM: TGI (LOX IMVI melanoma)
60.3 µM: TGI (PC-3 prostate)
97.9 µM: TGI (SR leukemia)
40.9 µM: TGI (SK-MEL-2 melanoma)
98.7 µM: TGI (UO-31 renal)
50.1 µM: TGI (EKVX NSCLC)
43.7 µM: TGI (M14 melanoma)
73.4 µM: TGI (UACC-62 melanoma)
72 µM: TGI (HCC-2998 colon)
32.4 µM: TGI (COLO 205 colon)
93.4 µM: TGI (786-0 renal)
98 µM: TGI (HS 578T breast)
35.5 µM: TGI (SK-MEL-5 melanoma)
62.8 µM: TGI (SN12C renal)
63.6 µM: TGI (HL-60(TB) leukemia)
48.7 µM: TGI (HCT-116 colon)
51.8 µM: TGI (NCI-H522 lung)
41.7 µM: TGI (SF-539 CNS)
83.9 µM: TGI (MDA-N)

Cc1nc(-c2cc3cc(Cl)ccc3oc2=O)cc2c1c(=O)oc1ccc(Cl)cc12
> 100 µM: TGI (LOX IMVI melanoma) | TGI (RPMI-8226 leukemia) | TGI (UACC-62 melanoma) | TGI (HS 578T breast) | TGI (SF-268 CNS) | TGI (NCI-H522 lung) | TGI (PC-3 prostate) | TGI (SW-620 colon) | TGI (HCC-2998 colon) | TGI (SN12C renal) | TGI (HL-60(TB) leukemia) | TGI (HCT-15 colon) | TGI (SNB-19 CNS) | TGI (TK-10 renal) | TGI (BT-549 breast) | TGI (NCI-H23 lung) | TGI (HOP-62 NSCLC) | TGI (UACC-257 melanoma) | TGI (SK-OV-3 ovarian) | TGI (CCRF-CEM leukemia) | TGI (U251 CNS) | TGI (KM12 colon) | TGI (A549 NSCLC) | TGI (IGROV1 ovarian) | TGI (HOP-92 NSCLC) | TGI (NCI-H460 lung) | TGI (MDA-N) | TGI (EKVX NSCLC) | TGI (MDA-MB-231 breast) | TGI (SR leukemia) | TGI (OVCAR-8 ovarian) | TGI (OVCAR-3 ovarian) | TGI (NCI-H226 lung) | TGI (MOLT-4 leukemia) | TGI (ACHN renal) | TGI (SF-295 CNS) | TGI (K-562 leukemia) | TGI (786-0 renal) | TGI (NCI/ADR-RES ovarian) | TGI (SK-MEL-5 melanoma) | TGI (T-47D breast) | TGI (MDA-MB-435) | TGI (RXF 393 renal) | TGI (COLO 205 colon) | TGI (HCT-116 colon) | TGI (DU-145 prostate) | TGI (M14 melanoma) | TGI (SK-MEL-2 melanoma) | TGI (MCF7 breast) | TGI (SK-MEL-28 melanoma) | TGI (HT29 colon) | TGI (UO-31 renal) | TGI (A498 renal)

Cc1nc(N)nc2ccccc12
> 100 µM: TGI (LOX IMVI melanoma) | TGI (RPMI-8226 leukemia) | TGI (UACC-62 melanoma) | TGI (HS 578T breast) | TGI (SF-268 CNS) | TGI (NCI-H522 lung) | TGI (PC-3 prostate) | TGI (SW-620 colon) | TGI (HCC-2998 colon) | TGI (SN12C renal) | TGI (HL-60(TB) leukemia) | TGI (HCT-15 colon) | TGI (SNB-19 CNS) | TGI (TK-10 renal) | TGI (CAKI-1 renal) | TGI (OVCAR-4 ovarian) | TGI (BT-549 breast) | TGI (NCI-H23 lung) | TGI (HOP-62 NSCLC) | TGI (UACC-257 melanoma) | TGI (SK-OV-3 ovarian) | TGI (CCRF-CEM leukemia) | TGI (U251 CNS) | TGI (SNB-75 CNS) | TGI (KM12 colon) | TGI (A549 NSCLC) | TGI (IGROV1 ovarian) | TGI (HOP-92 NSCLC) | TGI (NCI-H460 lung) | TGI (MDA-N) | TGI (EKVX NSCLC) | TGI (MDA-MB-231 breast) | TGI (SR leukemia) | TGI (OVCAR-8 ovarian) | TGI (OVCAR-3 ovarian) | TGI (MOLT-4 leukemia) | TGI (ACHN renal) | TGI (SF-295 CNS) | TGI (K-562 leukemia) | TGI (786-0 renal) | TGI (NCI/ADR-RES ovarian) | TGI (SK-MEL-5 melanoma) | TGI (T-47D breast) | TGI (MDA-MB-435) | TGI (RXF 393 renal) | TGI (COLO 205 colon) | TGI (HCT-116 colon) | TGI (SF-539 CNS) | TGI (DU-145 prostate) | TGI (M14 melanoma) | TGI (SK-MEL-2 melanoma) | TGI (MALME-3M melanoma) | TGI (MCF7 breast) | TGI (SK-MEL-28 melanoma) | TGI (HT29 colon) | TGI (UO-31 renal) | TGI (OVCAR-5 ovarian) | TGI (A498 renal)
inactive: GI50 (HCC-2998 colon) > 100 µM | GI50 (COLO 205 colon) > 100 µM
